Literature values, collected in patent US20140080845A1, “USE OF ALLOPURINOL FOR THE TREATMENT OF HAND FOOT SKIN REACTION” (NOBERA PHARMA, S.L., priority 2009, published 2014).
Like-named read-outs stand apart in the source and are kept apart here.

Legend:
[1] = meta-analysis, treated patients

solubility (in chloroform and in ether) | solubility (in dilute solutions of alkali hydroxides) | solubility (in water and alcohol) | Compound | summary incidence of HFSR, grade 3 [1] | summary incidence of HFSR, grades 1-3 [1]
practically insoluble | dissolves | very slightly soluble | Oc1ncnc2[nH]ncc12 [Allopurinol, 1H-pyrazolo[3,4-d] pyrimidin-4-ol] | – | –
– | – | – | CNC(=O)c1cc(Oc2ccc(NC(=O)Nc3ccc(Cl)c(C(F)(F)F)c3)cc2)ccn1 [sorafenib] | 8.9% | 33.8%
– | – | – | CCN(CC)CCNC(=O)c1c(C)[nH]c(/C=C2\C(=O)Nc3ccc(F)cc32)c1C [sunitinib] | 5.5% | 18.9%
